Experimental data published in patent US20250214973A1, “1,4,5-TRISUBSTITUTED-1,2,3-TRIAZOLES AND USES THEREOF” (UNIVERSITY OF PUERTO RICO, priority 2022, published 2025).

What was measured:
MDA-MB-435 [1] = assay: Cell viability assay (MTT); type: cell-based, human
Protocol: (§1) Cells plated at equal density were treated at 500 nM of compounds. After 72 hours, cell viability was measured by a MTT assay. n=3; * p<0.05, ** p<0.01, *** p<0.001.
(§2) Cells plated at equal density were treated at 250 nM of 4c at 250 nM.
(§3) Data from 3 biologic replicates each with 2 technical replicates. Four parameter dose-response curves generated using GraphPad Prism are shown.
[…]. GI50 was calculated using Graph pad Prism.
(§4) […] Using CellTiter 96 Non-Radioactive Cell Proliferation Assay (Promega, Corp.) according to manufactures' instructions, formazan was used as an indicator of viable cells at an absorbance 570 nm in a Tecan Microplate Reader M100. Data was calculated as fold change from vehicle and fitted using the 4′parameter logic nonlinear regression model in GraphPad Prism software. (n=3 biologic replicates: with 3 technical replicates each).
A range of compounds were tested by MTT assays for cell viability in MDA-MB-231 triple negative breast cancer (TNBC) cells and MDA-MB-435 HER2++ cancer cells. […].

MDA-MB-231 [2] = assay: Cell viability assay (MTT); type: cell-based; details: Homo sapiens
Protocol: Cells plated at equal density were treated at 500 nM of compounds. […]
as §2, §3
Cell viability relative to vehicle (100%) is shown.
as §4
A range of compounds were tested by MTT assays for cell viability in MDA-MB-231 triple negative breast cancer (TNBC) cells and MDA-MB-435 HER2++ cancer cells.

[3] = test system: RAW264.7 macrophage cell line; assay: Wound healing assay; type: cell-based, murine; details: Mus musculus, read-out: inhibition of wound closure, RAW264.7
Protocol: (§5) Mircrographs were digitally acquired at 0, 12, and 24 hours and the area of the wound quantified relative to the distance at time 0. n=3.
Murine macrophage cell line, RAW264.7, plated at equal density were subjected to a scratch in the center and treated with 4c at 0, 150 nM, 250 nM, or 500 nM. Mircrographs were digitally acquired at 0, 12, and 24 hours and the area of the wound quantified relative to the distance at time 0. n=3.

Panc-1 [4] = assay: Cell viability assay (MTT); type: cell-based; details: Homo sapiens, 120 hours, 0-1000 nM
Protocol: as §4

Panc-1 [5] = assay: Wound healing assay; type: cell-based; details: Homo sapiens, 24 hr, read-out: inhibition of Panc-1 cell migration
Protocol: as §5
Panc-1 cells plated at equal density were subjected to a scratch in the center and treated with 4c at 0, 150 nM, 250 nM, or 500 nM. Mircrographs were digitally acquired at 0, 12, and 24 hours and the area of the wound quantified relative to the distance at time 0. n=3.

MDA-MB-231 [6] = assay: Apoptosis assay, caspase 3/7 activity; type: cell-based, human; details: 500 nM, 48 hours
Protocol: (§6) Cells plated at equal density were treated at 500 nM of compounds. After 48 hours, caspase 3/7 activity was measured by luminescence. n=3; * p<0.05, ** p<0.01.
(§7) Equal number of cells were seeded incubated with vehicle or compounds according to this disclosure at 250 or 500 nM for 48 hrs. Apoptosis was measured using a Caspase-Glo3/7 Luminescence Assay Kit as per manufacturer's instructions (Promega, Corp.). Briefly, Caspase-3/7 Glo reagent was added and incubated at room temperature for 60 min and Caspase-3/7 activities were determined by detecting luminescence using Tecan Microplate Reader M100. (n=3 biologic replicates: with 3 technical replicates each).

MDA-MB-435 [7] = assay: Apoptosis assay, caspase 3/7 activity; type: cell-based, human; details: 500 nM, 48 hours
Protocol: as §6, §7

MCF-7 = assay: Initial screening, SRB assay GI50; type: cell-based; details: Homo sapiens, MCF7, 48 hrs
Protocol: (§8) For initial screening, the GIso of compounds 4a-4h in the cell lines MDA-MB-231, MDA-MB-435 and MCF-7 was determined via the SRB-assay for 48 hrs as follows:
(§9) A stock solution of compounds was prepared at 50 mM in 100% DMSO. For cells preparation, a flask of 75 cm^2 or 25 cm^2 were used for 2.6×10^5 cells/mL or 1.44×10^5 cells/mL, respectively, with an 80-90% of confluence. Cells were washed with PBS and trypsinized. The concentration of cells was determined using a 1:2 dilutions with Trypan Blue and a hemocytometer. After cell count, the concentration was adjusted to have a 7.0-10.0×10^4 cells/mL. Approximately 100 μL of cells suspension, compounds, control positive and control negative were added in triplicates to a 96 well plate. Positive control used was doxorubicin, and the negative control was DMSO 0.1%. All compounds (4a-h) at 50, 25, 12.5, 6.3, and 1.6 μM were incubated with cells at 37° C. for 48 hrs. For fixation, cold TCA 50% was used and incubated at 4° C. for 1 h. Wells were washed and dried prior to tincture with 100 μL of SRB 0.4%. To remove excess of SRB, acetic acid was used. For analysis, TRIS-BASE Solution (pH=10.5) was used and shaken prior to reading using an ELISA reader at 540 nm and the software SoftMax Pro 4.8. For each compound, 50% growth inhibition (GI50) was calculated from Sigmoidal dose-response curves (variable-slope) that were generated with data obtained from experiments carried out in triplicates (GI50 values were generated with GraphPad Prism V. 6.02, GraphPad Software, Inc.).

MDA-MB-231 [8] = assay: Initial screening, SRB assay GI50; type: cell-based; details: Homo sapiens, 48 hrs
Protocol: as §8, §9

MDA-MB-435 [9] = assay: Initial screening, SRB assay GI50; type: cell-based; details: Homo sapiens, 48 hrs, read-out: MDA-MB435 GI50
Protocol: as §8, §9

MDA-MB-468 [10] = assay: Cell viability assay (MTT); type: cell-based; details: 500 nM, 72 hours
Protocol: as §1
Equal number of cells were seeded in a 24 well plate and incubated with vehicle or compounds according to this disclosure at concentrations between 1 and 0.001 nM for 72 and 120 hrs. Using CellTiter 96 Non-Radioactive Cell Proliferation Assay (Promega, Corp.) according to manufactures' instructions, formazan was used as an indicator of viable cells at an absorbance 570 nm in a Tecan Microplate Reader M100. Data was calculated as fold change from vehicle and fitted using the 4′parameter logic nonlinear regression model in GraphPad Prism software. (n=3 biologic replicates: with 3 technical replicates each).

MDA-MB-468 [11] = assay: Apoptosis assay, caspase 3/7 activity; type: cell-based; details: 500 nM, 48 hours
Protocol: as §6, §7

MDA-MB-231 [12] = assay: Initial screening, inhibition of migration (wound gap); type: cell-based; details: Homo sapiens
Protocol: In addition, the inhibition of migration of MDA-MB-231 was determined via the following procedure:
Prior to assays, cells were grown until 80-90% confluence was observed. We used a 75 cm^2 flask for 2.6×10^5 cells/mL in 10 mL and for a 25 cm^2 flask 1.44×10^5 cells/mL in 5 mL. The cells were washed with PBS to remove all traces of FBS. We added 2 mL for a 25 cm^2 flasks or 4 mL for a 75 cm^2 flasks trypsin, and incubated 5-10 min at 37° C. At the end of the incubation time, cells were re-suspended and counted with hemocytometer using 1:2 dilutions with Trypan blue. Subsequently, cell viability was calculated. In a 12 well tissue culture plate, we used the plastic pattern to draw a fine space with a fine marker on the bottom of the plate. Cells were seeded at 1.5-2.2×10^5 cells/mL in 1 mL and incubated for 24 h. Cells were then rinsed with PBS and incubated in starving media (0.5% FBS) overnight. All controls and drugs were tested in triplicate. The negative control for each drug was prepared according to the drug's DMSO concentration. […] The wound was made using a sterile pipette tip of 200 μL. Cells were then rinsed very gently with media without FBS and media with negative controls was added. After a 24 h incubation, the gap distance was evaluated using the software Lumera Infinity Analyze 6.4.0. Pictures were taken at 0, 8, 12 and 24 h using a 10× objective in an Inverted Laboratory Microscope Leica DM IL LED, and an Infinity1-3 3.1 Megapixel USB 2.0 camera CMOS. The percentage of migration was calculated using the following formula: […]

Compound | GI50 (MDA-MB-435 [1]; Homo sapiens, MDA-MB-435, 72 h, read-out: GI50 MDA-MB-435) | inhibition at […] (MDA-MB-231 [2]; MDA-MB-231, 250 nM for 48 hours (footnote a; title says 500 nM), read-out: % growth inhibition MDA-MB-231) | cytotoxicity at […] (MDA-MB-231 [2]; 250 nM, 48h, text prints MDA-MB-435 TNBC, read-out: inhibition of cell viability) | inhibition at 0.15 µM ([3]; 150 nM) | inhibition at […] ([3]; 250 nM) | GI50 (Panc-1 [4]) | inhibition at […] (Panc-1 [5]; 250 nM) | inhibition at 0.5 µM (Panc-1 [5]; 500 nM) | Caspase 3/7 activity compared to the vehicle, MDA-MB-231 (MDA-MB-231 [6]) | Caspase 3/7 activity compared to the vehicle, MDA-MB-435 (MDA-MB-435 [7]) | GI50 (MCF-7) | GI50 (MDA-MB-231 [8]) | GI50 (MDA-MB-435 [9]) | effect on cell viability, MDA-MB-435 (MDA-MB-435 [1]; 500 nM) | cytotoxicity at 0.5 µM (MDA-MB-435 [1]; Homo sapiens, MDA-MB-435, 500 nM, 72 hours, read-out: decrease in cell viability, MDA-MB-435) | effect on cell viability, MDA-MB-468 (MDA-MB-468 [10]) | Caspase 3/7 activity, MDA-MB-468 (MDA-MB-468 [11]) | inhibition at 0.5 µM (MDA-MB-231 [12]; at 0.5 μM, read-out: Inh. of migration (converted)) | inhibition at 1.6 µM (MDA-MB-231 [12]; at 1.6 μM, read-out: Inh. of migration)
CCn1c2ccccc2c2cc(-n3nncc3-c3ccccc3)ccc21 (racemic) [MBQ-167, reference compound] | 145 nM | 36% | ~40% | 30% | 30% | 155 nM | 40% | 50% |  |  |  |  |  |  |  |  |  |  | 
CCn1c2ccccc2c2cc(-n3nnc(C(O)c4cccnc4)c3-c3ccccc3)ccc21 (stereo not shown) [Compound 4b, (1-(9-ethyl-9H-carbazol-3-yl)-5-phenyl-1H-1,2,3-triazol-4-yl) (pyridin-3-yl) methanol] |  |  |  |  |  |  |  |  | increased apoptosis | increased apoptosis | 40 nM | 8000 nM | 80 nM | inhibited cell viability | ~80% | inhibited cell viability | significantly increased | 25.2% | 61.4 ± 9.08%
